Reference: BindingDB's records for patent US9790180 (REGENACY PHARMACEUTICALS, LLC, 2017)

Tests used:
Histone deacetylase 2 = Histone deacetylase 2 (Homo sapiens, UniProt Q92769)
Histone deacetylase 3 = Histone deacetylase 3 (Homo sapiens, UniProt O15379)
Sequence of Histone deacetylase 3 (O15379 whole entry): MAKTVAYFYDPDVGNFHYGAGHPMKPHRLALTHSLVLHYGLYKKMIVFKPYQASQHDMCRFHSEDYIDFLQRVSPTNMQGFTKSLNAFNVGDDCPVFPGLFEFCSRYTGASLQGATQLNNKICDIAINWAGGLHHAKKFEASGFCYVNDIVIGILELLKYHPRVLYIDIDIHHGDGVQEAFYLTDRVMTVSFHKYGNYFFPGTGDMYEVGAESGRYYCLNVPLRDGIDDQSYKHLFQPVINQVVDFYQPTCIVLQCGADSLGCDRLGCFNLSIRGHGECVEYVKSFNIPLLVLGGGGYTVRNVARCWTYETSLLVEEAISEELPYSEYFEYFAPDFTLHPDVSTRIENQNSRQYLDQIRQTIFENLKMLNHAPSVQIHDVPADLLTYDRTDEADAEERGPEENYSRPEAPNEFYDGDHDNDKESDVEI

Sequence of Histone deacetylase 2 (Q92769 whole entry): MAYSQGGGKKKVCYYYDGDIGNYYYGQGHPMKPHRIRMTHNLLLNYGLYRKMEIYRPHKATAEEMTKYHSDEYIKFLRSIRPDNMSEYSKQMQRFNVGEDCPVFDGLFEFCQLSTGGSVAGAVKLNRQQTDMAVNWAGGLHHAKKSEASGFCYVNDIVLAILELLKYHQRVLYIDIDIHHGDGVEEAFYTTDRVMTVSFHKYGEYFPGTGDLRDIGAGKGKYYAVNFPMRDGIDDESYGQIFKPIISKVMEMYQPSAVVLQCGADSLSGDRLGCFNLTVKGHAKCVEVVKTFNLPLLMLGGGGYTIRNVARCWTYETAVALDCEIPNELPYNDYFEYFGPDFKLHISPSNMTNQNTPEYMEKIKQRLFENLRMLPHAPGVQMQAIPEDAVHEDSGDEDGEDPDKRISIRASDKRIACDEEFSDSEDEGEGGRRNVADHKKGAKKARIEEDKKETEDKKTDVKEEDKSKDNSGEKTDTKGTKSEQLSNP

**Q.** Which results are given for `CN(c1ncc(C(=O)Nc2cc(-c3ccccc3)ccc2N)cn1)C1CCN(C(=O)Cc2c[nH]c3ccccc23)CC1` [US9790180, ID 033]?
**A.** IC50 (Histone deacetylase 2): 211 nM; IC50 (Histone deacetylase 3): > 2000 nM

**Q.** For `Nc1ccc(-c2ccccc2)cc1NC(=O)c1cnc(NC2CCN(C(=O)Cc3c[nH]c4ccccc34)CC2)nc1` [US9790180, ID 035], which IC50 (Histone deacetylase 2) is on record?
**A.** 196 nM

**Q.** What about the IC50 (Histone deacetylase 3) of the same compound?
**A.** 1400 nM

**Q.** How did the IC50 (Histone deacetylase 2) turn out when `CC1(Nc2ncc(C(=O)Nc3cc(-c4ccccc4)ccc3N)cn2)CCNCC1` [US9790180, ID 041] was run?
**A.** 26 nM

**Q.** And the IC50 (Histone deacetylase 3)?
**A.** 252 nM
